According to patent US20200385371A1 (Propellon Therapeutics Inc., priority 2017, published 2020):

Legend:
MV4-11 cells = assay: Cell proliferation assay (ATPlite); assay type: cell-based; conditions: Homo sapiens, 120 h; MV4-11 cells, five days; read-out: GI MV411 EC50
Summary of the method: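 Cells seeded at 1,000/well in Alpha-MEM with 10% FBS, treated with compound over a 10-point range (top 10 μM) or DMSO. Grown five days at 37° C, 5% CO2; viability by ATPlite luminescence.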

WDR5 [1] = molecular target: T1, WDR5 (Homo sapiens, UniProt P61964); assay: Fluorescence Polarization (FP) binding assay
Summary of the method: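 Displacement of fluorescein-labelled H3 (1-15) (30 nM, with 0.3 μM WDR5) or 9-Ala-FAM (20 nM, with 0.05 μM WDR5) in 80 mM sodium phosphate pH 6.5, 20 mM KCl, 0.008% Triton X-100. FP read at 485/528 nm (H3) or 480/540 nm (9-Ala-FAM); Kdisp from hyperbolic fit, mean of quadruplicates.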

WDR5 [2] = molecular target: T1, WDR5; assay: Surface Plasmon Resonance (SPR) assay; assay type: binding; design: Full length WDR5 with an N-terminal His tag and C-terminal AviTag; His tag (N); made in house; host or cells: E. coli; conditions: read-out: SPR Kd
Summary of the method: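 Full-length biotinylated WDR5 (N-His, C-AviTag, E. coli) captured (~3000 RU) on streptavidin SA chip; Biacore T200. HBS-EP pH 7.4 plus 5% DMSO running buffer, 40 μl/min.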

EC50 (MV4-11 cells) [nM] | IC50 (WDR5 [1]) [nM] | Kd (WDR5 [2]) [nM] | Structure (SMILES)
139 | 19.8 | 1.46 | C[C@@H]1CN(c2ccc(-c3c(F)cc(N4CCN(C)[C@@H](C)C4)c(NC(=O)c4ccc(F)cc4C(F)(F)F)c3F)cn2)C[C@H](C)O1 [Example 176, N-(3-(6-((2S,6R)-2,6-dimethylmorpholino)pyridin-3-yl)-6-((S)-3,4-dimethylpiperazin-1-yl)-2,4-difluorophenyl)-4-fluoro-2-(trifluoromethyl)benzamide]
101 | 23 | 1.72 | C[C@@H]1CN(c2ccc(-c3c(F)cc(N4CCN(C)[C@@H](C)C4)c(NC(=O)c4ccc(F)cc4C(F)F)c3F)cn2)CCO1 [Example 177, 2-(Difluoromethyl)-N-(6-((S)-3,4-dimethylpiperazin-1-yl)-2,4-difluoro-3-(6-((R)-2-methylmorpholino)pyridin-3-yl)phenyl)-4-fluorobenzamide]
189 | 19.7 | 1.42 | C[C@@H]1CN(c2ccc(-c3c(F)cc(N4CCN(C)[C@@H](C)C4)c(NC(=O)c4ccc(F)cc4C(F)F)c3F)cn2)C[C@H](C)O1 [Example 178, 2-(Difluoromethyl)-N-(3-(6-((2S,6R)-2,6-dimethylmorpholino)pyridin-3-yl)-6-((S)-3,4-dimethylpiperazin-1-yl)-2,4-difluorophenyl)-4-fluorobenzamide]
141 | 20.1 | 1.59 | C[C@H]1CN(c2ccc(-c3c(F)cc(N4CCN(C)[C@@H](C)C4)c(NC(=O)c4ccc(F)cc4C(F)F)c3F)cn2)CCO1 [Example 179, 2-(Difluoromethyl)-N-(6-((S)-3,4-dimethylpiperazin-1-yl)-2,4-difluoro-3-(6-((S)-2-methylmorpholino)pyridin-3-yl)phenyl)-4-fluorobenzamide]
198 | 22.4 | 2.51 | C[C@H]1CN(c2cc(F)c(-c3ccc(N4CCOCC4)nc3)c(F)c2NC(=O)c2ccc(F)cc2C(F)F)CCN1C [Example 180, (S)-2-(Difluoromethyl)-N-(6-(3,4-dimethylpiperazin-1-yl)-2,4-difluoro-3-(6-morpholinopyridin-3-yl)phenyl)-4-fluorobenzamide]
29.9 | 24.5 | 0.64 | C[C@@H]1CN(c2ccc(-c3c(F)cc(N4CCN(C)[C@@H](C)C4)c(NC(=O)c4c[nH]c(=O)cc4C(F)F)c3F)cn2)CCO1 [Example 181, 4-(Difluoromethyl)-N-(6-((S)-3,4-dimethylpiperazin-1-yl)-2,4-difluoro-3-(6-((R)-2-methylmorpholino)pyridin-3-yl)phenyl)-6-oxo-1,6-dihydropyridine-3-carboxamide]
31 | 25.4 | 1.15 | C[C@@H]1CN(c2ccc(-c3c(F)cc(N4CCN(C)[C@@H](C)C4)c(NC(=O)c4c[nH]c(=O)cc4C(F)F)c3F)cn2)C[C@H](C)O1 [Example 182, 4-(Difluoromethyl)-N-(3-(6-((2S,6R)-2,6-dimethylmorpholino)pyridin-3-yl)-6-((S)-3,4-dimethylpiperazin-1-yl)-2,4-difluorophenyl)-6-oxo-1,6-dihydropyridine-3-carboxamide]
24.4 | 22.7 | 1.34 | C[C@H]1CN(c2ccc(-c3c(F)cc(N4CCN(C)[C@@H](C)C4)c(NC(=O)c4c[nH]c(=O)cc4C(F)F)c3F)cn2)CCO1 [Example 183, 4-(Difluoromethyl)-N-(6-((S)-3,4-dimethylpiperazin-1-yl)-2,4-difluoro-3-(6-((S)-2-methylmorpholino)pyridin-3-yl)phenyl)-6-oxo-1,6-dihydropyridine-3-carboxamide]
90.3 | 25.5 | 1.17 | C[C@H]1CN(c2cc(F)c(-c3ccc4c(c3)OCO4)c(F)c2NC(=O)c2c[nH]c(=O)cc2C(F)(F)F)CCN1C [Example 184, (S)—N-(3-(benzo[d][1,3]dioxol-5-yl)-6-(3,4-dimethylpiperazin-1-yl)-2,4-difluorophenyl)-6-oxo-4-(trifluoromethyl)-1,6-dihydropyridine-3-carboxamide]
